The record followed here is patent publication US20260042734A1, “HETEROCYCLIC RING-SUBSTITUTED AROMATIC COMPOUND, PREPARATION METHOD THEREFOR, AND USE THEREOF” (SHANGHAI HENLIUS BIOTECH, INC., priority 2023, published 2026).

In this test the target is human Kv1.3 (hKv1.3) channels (Homo sapiens (Human), UniProt P22001). As to the kind of experiment: Electrophysiological (whole-cell patch clamp) determination of inhibitory activity on Kv1.3 channels. The class given is cell-based. The following applies: HEK293T cells expressing hKv1.3; for inhibition at 0.01 µM: HEK-293T, compound concentration 10 nM, peak current inhibition, read-out: 10 nM inhibition rate (Kv1.3); for IC50: Hill fit of peak current inhibition. On the procedure: Test Example 1: Determination of Inhibitory Activity of Compounds on Kv1.3 (hKv1.3) Channels
Electrophysiological Testing
Potassium currents were measured using HEK293T cells expressing human Kv1.3 (hKv1.3) channels.
Prior to the start of electrophysiological experiments, Kv1.3 cell lines should be maintained within 70% of the maximum density in the logarithmic growth phase. All reagents should be pre-warmed to 37° C. before use. • 1) Aspirate the spent medium from the 6 cm culture dish. • 2) Add 1 mL of PBS, gently rock the dish to rinse the bottom, and then remove the PBS. • 3) Add 1 mL of trypsin, and gently rock the dish to ensure the trypsin covers all the cells. • 4) Incubate at 37° C. for 2-3 minutes, and then gently pipette the cells to suspend the adherent cells. • 5) Transfer the cell suspension to a new centrifuge tube and centrifuge at 1000 rpm for 5 minutes. Adjust the cell concentration to 2×10^3 cells/mL, and then seed 300 μL of the cell suspension into each well of a 24-well plate containing cell climbing slides. Perform patch clamp experiments after the cells adhered properly.
The intracellular and extracellular solutions used were designed to mimic the cell physiological ionic composition.
Kv1.3 extracellular solution: 137 mM NaCl, 1 mM MgCl2·6H2O, 4 mM KCl, 1.8 mM CaCl2·2H2O, 10 mM D-Glucose, 10 mM HEPES, pH adjusted to 7.4 with NaOH.
Kv1.3 intracellular solution: 140 mM KCl, 10 mM EGTA, 5 mM MgCl2·6H2O, 10 mM HEPES, […], pH adjusted to 7.2 with KOH.
Test Compound Dissolution
• 1) The test compound was dissolved in DMSO to prepare a 30 mM stock solution. • 2) The stock solution of the test compound was serially diluted with DMSO to obtain secondary stock solutions at concentrations of 300 μM, 100 μM, 30 μM, 10 μM, and 3 μM. • 3) 10 μL of each secondary stock solution was diluted into 10 mL of extracellular solution to achieve final concentrations of 300 nM, 100 nM, 30 nM, 10 nM, and 3 nM for electrophysiological testing.
Kv1.3 potassium current data were collected and stored on a computer using Patchmaster software via an EPC-10 amplifier. • 1) The cell climbing slide was removed from the cell culture dish using forceps, immersed with extracellular solution, and placed into the bath chamber on the stage of an inverted microscope. • 2) Glass micropipettes were pulled using a P-1000 micropipette puller, filled one-third of their volume with intracellular solution, and then mounted onto an electrode holder. • 3) Using a motorized micromanipulator (Scientifica-Double 1U), the recording electrode was brought into contact with the cell surface. […] The positive pressure was removed, and a negative pressure of 0.5 cm H2O was applied. It was observed that the sealing resistance increased rapidly until it reached the gigaseal. When the sealing resistance between the recording electrode and the cell membrane was >1 GΩ, negative pressure was applied to rupture the membrane to form the whole-cell recording mode. After the ruptured membrane stabilized, the membrane capacitance (Cs) and series resistance (Rs) were compensated. • 4) Stimulation procedure: the cell was voltage-clamped at −80 mV, depolarized to 40 mV for a duration of 200 ms, and then repolarized to −80 mV. Currents were recorded every 10 s. • 5) Kv1.3 potassium channel currents were recorded at room temperature prior to drug application. After the control current value reached a steady state (indicated by overlapping of the four most consecutive current traces), cumulative drug application was performed. The negative control (0.1% DMSO) was applied first, followed by […] of the drugs.
Raw Kv1.3 current peak data were extracted from PatchMaster software. The current inhibition rate was calculated as follows: Peak current inhibition rate=((1−(Peak current compound)/(Peak current vehicle))). […]

Sequence of human Kv1.3 (hKv1.3) channels (P22001 whole entry): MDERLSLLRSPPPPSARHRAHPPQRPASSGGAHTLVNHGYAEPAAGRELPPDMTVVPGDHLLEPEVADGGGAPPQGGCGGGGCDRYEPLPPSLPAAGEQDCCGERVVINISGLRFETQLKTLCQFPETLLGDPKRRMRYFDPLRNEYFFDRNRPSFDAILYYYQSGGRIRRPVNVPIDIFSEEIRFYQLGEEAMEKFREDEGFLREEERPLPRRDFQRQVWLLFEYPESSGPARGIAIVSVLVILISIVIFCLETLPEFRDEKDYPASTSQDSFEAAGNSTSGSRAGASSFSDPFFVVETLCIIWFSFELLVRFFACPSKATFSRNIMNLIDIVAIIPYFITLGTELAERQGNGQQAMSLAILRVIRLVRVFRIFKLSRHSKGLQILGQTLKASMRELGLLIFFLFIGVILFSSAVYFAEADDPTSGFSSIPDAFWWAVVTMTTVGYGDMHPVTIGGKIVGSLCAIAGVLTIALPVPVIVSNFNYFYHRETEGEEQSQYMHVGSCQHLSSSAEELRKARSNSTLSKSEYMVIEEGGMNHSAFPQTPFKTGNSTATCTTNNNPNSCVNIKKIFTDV

As usually defined, the inhibition is how much of the control response was suppressed. `Oc1ccc(Cl)c(Cl)c1C1CC(=S)N(c2cnn3c2COCC3)C1` (racemic) [Compound 163, rac-4-(2,3-dichloro-6-hydroxyphenyl)-1-(6,7-dihydro-4H-pyrazolo[5,1-c][1,4]oxazin-3-yl)pyrrolidine-2-thione]: the inhibition at 0.01 µM was in the range of 25 to 50%. For the compound `CS(=O)(=O)CCN1CC(c2c(O)ccc(Cl)c2Cl)CC1=O` (stereo not shown) [Compound 79, 4-(2,3-Dichloro-6-hydroxyphenyl)-1-(2-(methylsulfonyl)ethyl)pyrrolidin-2-one], the inhibition at 0.01 µM is less than 0%. On to `Cc1ncc(N2CC(c3c(O)ccc(Cl)c3Cl)CC2=S)s1` (stereo not shown) [Compound 43, 4-(2,3-Dichloro-6-hydroxyphenyl)-1-(2-methylthiazol-5-yl)pyrrolidine-2-thione], for which the inhibition at 0.01 µM is 0 to 5%. Take `CON(C)CCCN1CC(c2c(O)ccc(Cl)c2Cl)CC1=O` (stereo not shown) [Compound 105, 4-(2,3-Dichloro-6-hydroxyphenyl)-1-(3-(methoxy(methyl)amino)propyl) pyrrolidin-2-one]: the inhibition at 0.01 µM is less than 0%. Turning to `CONCCCN1CC(c2c(O)ccc(Cl)c2Cl)CC1=O` (stereo not shown) [Compound 104, 4-(2,3-Dichloro-6-hydroxyphenyl)-1-(3-(methoxyamino)propyl)pyrrolidin-2-one], the inhibition at 0.01 µM lay in the range of 0 to 5%. As usually defined, the IC50 is the concentration needed to halve the response being measured. Regarding `NCCCN1C[C@H](c2c(O)ccc(Cl)c2Cl)CC1=O` [Compound W2, reference compound], the IC50 fell in the range of 10 to 30 nM.

Consider `OC[C@H]1C[C@H](N2CC(c3c(O)ccc(Cl)c3Cl)CC2=S)C1` (mixture of isomers) [Compound 126, rac-4-(2,3-dichloro-6-hydroxyphenyl)-1-((1r,3r)-3-(hydroxymethyl)cyclobutyl)pyrrolidine-2-thione], for which the inhibition at 0.01 µM fell in the range of 0 to 5%. `NOCCN1CC(c2c(O)ccc(Cl)c2Cl)CC1=O` (stereo not shown) [Compound 119, 1-(2-(Aminooxy)ethyl)-4-(2,3-dichloro-6-hydroxyphenyl)pyrrolidin-2-one]: the inhibition at 0.01 µM lay in the range of 0 to 5%. Still for that read-out and setting: as for `COc1ccc(N2CC(c3c(O)ccc(Cl)c3Cl)CC2=S)cn1` (racemic) [Compound 165, rac-4-(2,3-dichloro-6-hydroxyphenyl)-1-(6-methoxypyridin-3-yl)pyrrolidine-2-thione], the figure is 0 to 5%; as for `OCCCN1CC(c2c(O)ccc(Cl)c2Cl)CC1=S` (racemic) [Compound 1, rac-4-(2,3-Dichloro-6-hydroxyphenyl)-1-(3-hydroxypropyl)pyrrolidine-2-thione], 25 to 50%; as for `ONCCCN1CC(c2c(O)ccc(Cl)c2Cl)CC1=S` (racemic) [Compound 26, rac-4-(2,3-Dichloro-6-hydroxyphenyl)-1-(3-(hydroxyamino)propyl)pyrrolidine-2-thione], 0 to 5%.

Consider `O=C1N(CCCO)CC(c2c(O)ccc(Cl)c2Cl)C12CC2` (racemic) [Compound 169, rac-7-(2,3-dichloro-6-hydroxyphenyl)-5-(3-hydroxypropyl)-5-azaspiro[2.4]heptan-4-one], for which the inhibition at 0.01 µM is less than 0%. As to `NC(=S)CCN1CC(c2c(O)ccc(Cl)c2Cl)CC1=O` (stereo not shown) [Compound 113, 3-(4-(2,3-Dichloro-6-hydroxyphenyl)-2-oxopyrrolidin-1-yl)propanethioamide], the inhibition at 0.01 µM is less than 0%. For `Oc1ccc(Cl)c(Cl)c1C1CC(=S)N(c2cnn3c2CCC3)C1` (racemic) [Compound 159, rac-4-(2,3-dichloro-6-hydroxyphenyl)-1-(5,6-dihydro-4H-pyrrolo[1,2-b]pyrazol-3-yl)pyrrolidine-2-thione], the inhibition at 0.01 µM is 25 to 50%. Turning to `CS(=O)(=O)NCCCN1CC(c2c(O)ccc(Cl)c2Cl)CC1=O` (stereo not shown) [Compound 76, N-(3-(4-(2,3-Dichloro-6-hydroxyphenyl)-2-oxopyrrolidin-1-yl)propyl)methanesulfonamide], the inhibition at 0.01 µM lay within 0 to 5%.

On to `OCCCN1CC(c2c(O)ccc(Cl)c2F)CC1=S` (racemic) [Compound 149, rac-4-(3-chloro-2-fluoro-6-hydroxyphenyl)-1-(3-hydroxypropyl)pyrrolidine-2-thione], for which the inhibition at 0.01 µM is less than 0%.

In the case of `Oc1ccc(Cl)c(Cl)c1C1CC(=S)N(c2cnn3c2OCCC3)C1` (racemic) [Compound 162, rac-4-(2,3-dichloro-6-hydroxyphenyl)-1-(6,7-dihydro-5H-pyrazolo[5,1-b][1,3]oxazin-3-yl)pyrrolidine-2-thione], the inhibition at 0.01 µM was in the range of 0 to 5%. As for `CS(=O)(=O)n1cc(N2CC(c3c(O)ccc(Cl)c3Cl)CC2=O)cn1` (racemic) [Compound 92, 4-(2,3-Dichloro-6-hydroxyphenyl)-1-(1-(methylsulfonyl)-1H-pyrazol-4-yl)pyrrolidin-2-one], the inhibition at 0.01 µM fell in the range of 50 to 75%. For `Cn1cncc1N1CC(c2c(O)ccc(Cl)c2Cl)CC1=S` (stereo not shown) [Compound 42, 4-(2,3-Dichloro-6-hydroxyphenyl)-1-(1-methyl-1H-imidazol-5-yl)pyrrolidine-2-thione], the inhibition at 0.01 µM is less than 0%. Compound `OCCCCN1C[C@H](c2c(O)ccc(Cl)c2Cl)CC1=S` [Compound 130-1, (S)-4-(2,3-Dichloro-6-hydroxyphenyl)-1-(4-hydroxybutyl)pyrrolidine-2-thione] showed an IC50 of no more than 5 nM.

For `O=C1C[C@@H](c2c(O)ccc(Cl)c2Cl)CN1CCCO` [Compound W1, reference compound], the IC50 was in the range of 10 to 30 nM and the inhibition at 0.01 µM was in the range of 25 to 50%. On to `Cc1cc(N2CC(c3c(O)ccc(Cl)c3Cl)CC2=S)ccn1` (racemic) [Compound 167, rac-4-(2,3-dichloro-6-hydroxyphenyl)-1-(2-methylpyridin-4-yl)pyrrolidine-2-thione], for which the inhibition at 0.01 µM lay within 0 to 5%. Still for that read-out and setting: the value for `Oc1ccc(Cl)c(Cl)c1C1CC(=S)N(CCn2cccn2)C1` (racemic) [Compound 37, rac-1-(2-(1H-Pyrazol-1-yl)ethyl)-4-(2,3-dichloro-6-hydroxyphenyl)pyrrolidine-2-thione] was less than 0%. In the case of `NCCCN1CC(c2c(O)ccc(Cl)c2Cl)CC1=S` (racemic) [Compound 2, rac-1-(3-Aminopropyl)-4-(2,3-dichloro-6-hydroxyphenyl)pyrrolidine-2-thione], the inhibition at 0.01 µM was 50 to 75%. On the same count and under the same terms, as for `NS(=O)(=O)CCN1CC(c2c(O)ccc(Cl)c2Cl)CC1=O` (stereo not shown) [Compound 77, 2-(4-(2,3-Dichloro-6-hydroxyphenyl)-2-oxopyrrolidin-1-yl)ethane-1-sulfonamide], the figure is 0 to 5%. In the case of `NOCCCN1CC(c2c(O)ccc(Cl)c2Cl)CC1=O` (stereo not shown) [Compound 120, 1-(3-(Aminooxy)propyl)-4-(2,3-dichloro-6-hydroxyphenyl)pyrrolidin-2-one], the inhibition at 0.01 µM was less than 0%. Same read-out and setting: the value for `O=C1N(CCCO)CC(c2c(O)ccc(Cl)c2Cl)C1(F)F` (racemic) [Compound 168, rac-4-(2,3-dichloro-6-hydroxyphenyl)-3,3-difluoro-1-(3-hydroxypropyl)pyrrolidin-2-one] was less than 0%. `Oc1ccc(Cl)c(Cl)c1[C@@H]1CC(=S)N([C@H]2C[C@H](O)C2)C1` [Compound 124-1, (S)-4-(2,3-Dichloro-6-hydroxyphenyl)-1-((1r,3r)-3-hydroxycyclobutyl)pyrrolidine-2-thione]: the IC50 lay within 5 to 10 nM.

`Oc1ccc(Cl)c(Cl)c1C1CC(=S)N([C@H]2C[C@H](O)C2)C1` (mixture of isomers) [Compound 124, rac-4-(2,3-dichloro-6-hydroxyphenyl)-1-((1r,3r)-3-hydroxycyclobutyl)pyrrolidine-2-thione]: the inhibition at 0.01 µM lay within 25 to 50%.

For the compound `CS(=N)(=O)CCN1CC(c2c(O)ccc(Cl)c2Cl)CC1=O` (stereo not shown) [Compound 78, 4-(2,3-Dichloro-6-hydroxyphenyl)-1-(2-(S-methylsulfonylimino)ethyl) pyrrolidin-2-one], the inhibition at 0.01 µM lay within 0 to 5%.
